Legend:
Glukosidasen = details: known from Angew. Chem. 93, 738 (1981); cited from earlier work
[1] = system: UDP-gal NAc: polypeptid-α-N-acetylgalaktosaminyl-transferase; experiment: Inhibition of polypeptide α-N-acetylgalactosaminyl transferase activity; format: biochemical; details: qualitative statement, no value given
[2] = target: α-N-Acetyl-galaktosaminidase; experiment: Inhibition of α-N-acetylgalactosaminidase; format: biochemical; details: α-N-Acetyl-galaktosaminidase aus Charonia lampas; read-out: IC₅₀
Glykoproteinen = experiment: Effect on half-life of glycoproteins; details: qualitative statement, no value given

Structure (SMILES) | Hemmwirkung auf Glukosidasen (Glukosidasen) | Aktivität der UDP-gal NAc: polypeptid-α-N-acetylgalaktosaminyl-transferase [1] | IC50 [2] [nM] | Halbwertszeit von Glykoproteinen (Glykoproteinen)
OC[C@H]1NC[C@H](O)[C@@H](O)[C@@H]1O [1-Desoxynojirimycin] | Hemmwirkung |  |  | 
CC(=O)N[C@H]1CN[C@H](CO)[C@H](O)[C@@H]1O [If, 2-N-Acetyl-1,2,5-tridesoxy-1,5-imino-D-galaktit] |  | inhibiert | 1400 | erhöht
